In patent publication US9549558B2, “Herbicidal azines” (BASF SE, priority 2012, dated 2017):

Tests used:
Type in all cases: in vivo
LAMPU (Lamium purpureum) = assay: greenhouse pre-emergence herbicidal test
In short: (§1)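 Scores run from 0, meaning normal growth, to 100, meaning no emergence or complete destruction of aerial parts, assessed over a 2 to 4 week test period. Active ingredients in water were applied by fine nozzles directly after sowing into loamy sand with about 3.0% humus.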

[1] = system: CAPBP (Capsella bursa-pastoris); assay: greenhouse pre-emergence herbicidal test
In short: as §1

STEME (Stellaria media) [2] = assay: greenhouse post-emergence herbicidal test
In short: (§2)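 Post-emergence greenhouse test on plants grown to 3–15 cm in loamy sand (~3.0% humus), sprayed with active ingredient suspended or emulsified in water. Plants held at 10-25 °C or 20-35 °C by species for 2 to 4 weeks, then damage scored visually 0–100 (100 = complete destruction of aerial parts, 0 = no damage).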

[3] = system: ABUTH (Abutilon theophrasti); assay: greenhouse post-emergence herbicidal test
In short: as §2

[4] = system: POLCO (Polygonum convolvulus); assay: greenhouse pre-emergence herbicidal test
In short: as §1

SETVI (Setaria viridis) [5] = assay: greenhouse pre-emergence herbicidal test
In short: as §1

[6] = system: APESV (Apera spica-venti); assay: greenhouse pre-emergence herbicidal test
In short: as §1

THLAR (Thlaspi arvense) = assay: greenhouse pre-emergence herbicidal test; details: 0.125 kg/ha
In short: as §1

[7] = system: AMARE (Amaranthus retroflexus); assay: greenhouse post-emergence herbicidal test
In short: as §2

[8] = system: MATIN (Matricaria maritima); assay: greenhouse pre-emergence herbicidal test; details: 2000 g/ha
In short: as §1

POAAN (Poa annua) = assay: greenhouse pre-emergence herbicidal test
In short: as §1

STEME (Stellaria media) [9] = assay: greenhouse pre-emergence herbicidal test
In short: as §1

[10] = system: ECHCG (Echinocloa crus-galli); assay: greenhouse pre-emergence herbicidal test
In short: as §1

[11] = system: AMARE (Amaranthus retroflexus); assay: greenhouse pre-emergence herbicidal test; details: 1000 g/ha
Description: The seeds of the test plants were sown separately for each species. For the pre-emergence treatment, the active ingredients, which had been suspended or emulsified in water, were applied directly after sowing by means of finely distributing nozzles. The containers were irrigated gently to promote germination and growth and subsequently covered with transparent plastic hoods until the plants had rooted. This cover caused uniform germination of the test plants, unless this had been impaired by the active ingredients. Depending on the species, the plants were kept at 10-25° C. or 20-35° C., respectively. The test period extended over 2 to 4 weeks. During this time, the plants were tended, and their response to the individual treatments was evaluated. […] A moderate herbicidal activity is given at values of at least 60, a good herbicidal activity is given at values of at least 70, and a very good herbicidal activity is given at values of at least 85. The plants used in the greenhouse experiments were of the following species: [table]

VIOAR (Viola arvensis) = assay: greenhouse pre-emergence herbicidal test
In short: as §1

SETVI (Setaria viridis) [12] = assay: greenhouse post-emergence herbicidal test; details: 62 g/ha
In short: as §2

CCc1nc(N)nc(Nc2c(F)c(F)c(F)c(F)c2F)n1 [Example 4]
herbicidal activity (LAMPU (Lamium purpureum); 0.125 kg/ha): very good (a very good herbicidal activity is given at values of at least 85) | herbicidal activity ([1]; 0.125 kg/ha, CAPBP): very good (a very good herbicidal activity is given at values of at least 85)

CC(F)c1nc(N)nc(Nc2cc(F)c(F)c(F)c2)n1 (centres unmarked) [Example 16]
herbicidal activity (STEME (Stellaria media) [2]; 0.125 kg/ha): moderate (A moderate herbicidal activity is given at values of at least 60) | herbicidal activity ([3]; 0.125 kg/ha): good (a good herbicidal activity is given at values of at least 70)

CC(C)(F)c1nc(N)nc(Nc2c(F)cccc2F)n1 [Example 24]
herbicidal activity ([4]; 0.125 kg/ha): very good (a very good herbicidal activity is given at values of at least 85) | herbicidal activity (SETVI (Setaria viridis) [5]; 0.125 kg/ha): very good (a very good herbicidal activity is given at values of at least 85)

CC(C)(F)c1nc(N)nc(Nc2c(F)cccc2Cl)n1 [Example 35]
herbicidal activity (STEME (Stellaria media) [2]; 0.062 kg/ha): very good (a very good herbicidal activity is given at values of at least 85) | herbicidal activity ([3]; 0.062 kg/ha): very good (a very good herbicidal activity is given at values of at least 85)

CC(C)(F)c1nc(N)nc(Nc2ccc([N+](=O)[O-])cc2F)n1 [Example 39]
herbicidal activity ([6]; 0.031 kg/ha): moderate (A moderate herbicidal activity is given at values of at least 60)

CC(C)(F)c1nc(N)nc(Nc2cc(C(F)(F)F)cc(C(F)(F)F)c2)n1 [Example 46]
herbicidal activity (THLAR (Thlaspi arvense)): very good (a very good herbicidal activity is given at values of at least 85)

CCC(C)(F)c1nc(N)nc(Nc2c(F)c(F)c(F)c(F)c2F)n1 (centres unmarked) [Example 48]
herbicidal activity (STEME (Stellaria media) [2]; 0.125 kg/ha): very good (a very good herbicidal activity is given at values of at least 85) | herbicidal activity ([7]; 0.125 kg/ha): very good (a very good herbicidal activity is given at values of at least 85)

CC(O)c1nc(N)nc(Nc2c(F)c(F)c(F)c(F)c2F)n1 (centres unmarked) [Example 69]
herbicidal activity [8]: very good (a very good herbicidal activity is given at values of at least 85) | herbicidal activity (POAAN (Poa annua); 2000 g/ha): very good (a very good herbicidal activity is given at values of at least 85)

CC(C)(Cl)c1nc(N)nc(Nc2c(F)cccc2F)n1 [Example 78]
herbicidal activity ([6]; 125 g/ha): good (a good herbicidal activity is given at values of at least 70)

CC1(c2nc(N)nc(Nc3c(F)c(F)c(F)c(F)c3F)n2)CCCCC1 [Example 88]
herbicidal activity (STEME (Stellaria media) [9]; 125 g/ha): very good (a very good herbicidal activity is given at values of at least 85) | herbicidal activity (LAMPU (Lamium purpureum); 125 g/ha): very good (a very good herbicidal activity is given at values of at least 85) | herbicidal activity ([1]; 125 g/ha, CAPBP): very good (a very good herbicidal activity is given at values of at least 85)

CC(C)(F)c1nc(N)nc(Nc2c(F)cc(Cl)cc2F)n1 [Example 97]
herbicidal activity (LAMPU (Lamium purpureum); 250 g/ha): good (a good herbicidal activity is given at values of at least 70) | herbicidal activity ([1]; 250 g/ha, CAPBP): good (a good herbicidal activity is given at values of at least 70)

CCC(C)(F)c1nc(N)nc(Nc2c(F)ccc(F)c2F)n1 (centres unmarked) [Example 114]
herbicidal activity ([4]; 32 g/ha): very good (a very good herbicidal activity is given at values of at least 85) | herbicidal activity (SETVI (Setaria viridis) [5]; 32 g/ha): very good (a very good herbicidal activity is given at values of at least 85) | herbicidal activity ([10]; 32 g/ha): very good (a very good herbicidal activity is given at values of at least 85)

COc1cc(F)c(Nc2nc(N)nc(C(C)(C)F)n2)c(F)c1 [Example 116]
herbicidal activity [11]: good (a good herbicidal activity is given at values of at least 70) | herbicidal activity ([6]; 1000 g/ha): very good (a very good herbicidal activity is given at values of at least 85)

CC(C)(F)c1nc(N)nc(Nc2c(F)c(F)c(Cl)c(F)c2F)n1 [Example 128]
herbicidal activity (VIOAR (Viola arvensis); 125 g/ha): good (a good herbicidal activity is given at values of at least 70) | herbicidal activity (POAAN (Poa annua); 125 g/ha): very good (a very good herbicidal activity is given at values of at least 85)

CC(C)(C)c1nc(N)nc(Nc2c(F)c(F)c(Br)c(F)c2F)n1 [Example 160]
herbicidal activity (STEME (Stellaria media) [9]; 125 g/ha): very good (a very good herbicidal activity is given at values of at least 85) | herbicidal activity (LAMPU (Lamium purpureum); 125 g/ha): very good (a very good herbicidal activity is given at values of at least 85) | herbicidal activity ([1]; 125 g/ha, CAPBP): very good (a very good herbicidal activity is given at values of at least 85)

Nc1nc(Nc2c(F)c(F)c(F)c(F)c2F)nc(C2(F)C(F)(F)C(F)(F)C(F)(F)C(F)(F)C2(F)F)n1 [Example 175]
herbicidal activity ([6]; 494 g/ha): good (a good herbicidal activity is given at values of at least 70)

CCC(C)(Cl)c1nc(N)nc(Nc2c(F)c(F)c(F)c(F)c2F)n1 (centres unmarked) [Example 200]
herbicidal activity ([4]; 1000 g/ha): very good (a very good herbicidal activity is given at values of at least 85) | herbicidal activity ([1]; 1000 g/ha, CACBP): very good (a very good herbicidal activity is given at values of at least 85) | herbicidal activity ([10]; 1000 g/ha): very good (a very good herbicidal activity is given at values of at least 85)

CC(C)(C)C(=O)N(c1nc(N)nc(C(C)(C)C)n1)c1c(F)c(F)c(F)c(F)c1F [Example 283]
herbicidal activity (SETVI (Setaria viridis) [12]): good (a good herbicidal activity is given at values of at least 70) | herbicidal activity ([7]; 62 g/ha): very good (a very good herbicidal activity is given at values of at least 85)

CC(=O)N(c1nc(N)nc(C(C)(C)F)n1)c1c(F)c(F)c(F)c(F)c1F [Example 291]
herbicidal activity [8]: very good (a very good herbicidal activity is given at values of at least 85) | herbicidal activity (POAAN (Poa annua); 2000 g/ha): very good (a very good herbicidal activity is given at values of at least 85)

COCN(c1nc(N)nc(C(C)(C)F)n1)c1c(F)c(F)c(F)c(F)c1F [Example 305]
herbicidal activity (STEME (Stellaria media) [9]; 500 g/ha): very good (a very good herbicidal activity is given at values of at least 85) | herbicidal activity (VIOAR (Viola arvensis); 500 g/ha): very good (a very good herbicidal activity is given at values of at least 85) | herbicidal activity ([4]; 500 g/ha): very good (a very good herbicidal activity is given at values of at least 85)
